# Test results reported in patent US20250319015A1, “VACCINIUM MACROCARPON EXTRACT AND ANTI-AGEING COSMETIC EFFECTS THEREOF” (SOCIETE INDUSTRIELLE LIMOUSINE D'APPLICATION BIOLOGIQUE, priority 2021, published 2025).
# Assays:
# Ki-67 = Ki-67 synthesis in reconstructed epidermises (immunohistofluorescence); type: cell-based, human; settings: older reconstructed epidermises, 10 μM Retinol
# Procedure: This study was carried out on normal and older reconstructed epidermises. The epidermal construction was evaluated using a Hematoxylin Eosin (HE) stain and the synthesis of the barrier function markers by immunohistofluorescence. The procedure of the study is described below. […] The epidermides are recovered, fixed, dehydrated, and enclosed in paraffin. Sections (4 μm) are then made using a microtome. […] Viewing is performed using a microscope coupled to an image analysis system. The thickness of the epidermises obtained was measured on the histological sections produced. The rate of the various synthesized markers is proportional to the intensity of green fluorescence present on the reconstructed epidermises. A quantitative analysis of the images was carried out using an image analysis script. The results are expressed in arbitrary units (AU).
# MMP-1 = MMP-1 level by ELISA on older human fibroblasts subjected to UVA; type: cell-based; settings: UVA-irradiated older fibroblasts, 1 μM Retinol
# Procedure: The older human fibroblasts are seeded and incubated at 37° C. in an atmosphere containing 5% CO2. The irradiations are carried out using a UV lamp with UVA intensities of 10 J/cm2.
# (§1) The cells are then incubated at 37° C. in an atmosphere containing 5% CO2 for 48 hours.
# [1] = test system: healthy Caucasian female volunteers; test: Quality of the dermal fibers by LC-OCT, Caucasian volunteers; type: in vivo, human; settings: Retinol 0.075%
# Procedure: This study was carried out on 3 groups of 18 healthy female volunteers, aged 45 to 66 years and presenting with crow's feet wrinkles. Each of the volunteers applied two of the three study formulae to half the face twice-daily in a randomized manner for 42 days.
# Acquisitions carried out by LC-OCT after 21 and 42 days of treatment at the cheeks allowed evaluation of the structure of the quality of the fibers.
# collagen I = test: Collagen I network by immunocytology on older human fibroblasts; type: cell-based; settings: 0.1 μM Retinol
# Procedure: Immunocytological labeling of collagen I is carried out by fixing and permeabilization using primary antibody I and secondary antibody coupled to a fluorophore. A quantitative analysis was carried out by reading the fluorescence of the various conditions tested using a fluorometer. The intensity of the collagen I network is proportional to the intensity of green fluorescence present. The results are expressed in fluorescence value (AU).
# hyaluronic acid = test: Hyaluronic acid synthesis by ELISA on older human fibroblasts; type: cell-based; settings: 1 μM Retinol
# Procedure: The older human fibroblasts are seeded and incubated at 37° C. in an atmosphere containing 5% CO2.
# as §1
# [2] = test system: healthy Caucasian female volunteers; test: Complexion radiance by visual scoring by experts, Caucasian volunteers; type: in vivo, human; settings: Retinol 0.075%
# Procedure: The complexion radiance is evaluated by experts using the following parameters: radiance, […], olive color and eye fatigue.
# older human cells = test: Gene expression by quantitative PCR, structural elements of the DEJ, older cells; type: cell-based; settings: 1 μM Retinol
# Procedure: This study was carried out on 34 genes involved in the various processes related to the establishment of: • the skin barrier function: proliferation, hydration, cohesion, differentiation, desquamation, innate immunity, anti-oxidant and inflammation system (cf. Table 9: Proliferation, Hydration, Cohesion, Differentiation, Anti-Radical and Inflammation). • the dermal-epidermal junction DEJ; • the dermal matrix; organization and degradation of the fibers, hydration and inflammation (cf. Table 9: Matrix Organization, Matrix Degradation, Hydration, Proteoglycan, Growth and Inflammation Factors). […] The procedure of the study is described below. The young and older human cells are seeded and incubated at 37° C. […] After several days, the cells are recovered and the total RNA extracted. The RNAs were reverse-transcribed and the complementary DNAs obtained were analyzed by the quantitative PCR technique. The mRNAs of internal reference controls were analyzed in parallel with the mRNAs of the markers involved in the barrier function of the epidermis, in the DEJ and in the dermal matrix. The incorporation of fluorescence is measured continuously using a thermal cycler. The RQ (relative quantification) analysis is performed using software.
# [3] = test system: human keratinocytes from older donors (≥60 years); test: Gene expression by quantitative PCR on older human keratinocytes; type: cell-based; settings: 1 μM Retinol
# Procedure: The procedure of the study is described below. The young and older human cells are seeded and incubated at 37° C. […] After several days, the cells are recovered and the total RNA extracted. The RNAs were reverse-transcribed and the complementary DNAs obtained were analyzed by the quantitative PCR technique. The mRNAs of internal reference controls were analyzed in parallel with the mRNAs of the markers involved in the barrier function of the epidermis, in the DEJ and in the dermal matrix. The incorporation of fluorescence is measured continuously using a thermal cycler. The RQ (relative quantification) analysis is performed using software.
smiles,measurement,setting,value
"CC1=C(/C=C/C(C)=C/C=C/C(C)=C/CO)C(C)(C)CCC1 [Retinol, retinol]",Ability to restore Ki-67 synthesis (%),Ki-67,+71%
same,Ki-67-positive cells (%),Ki-67; 48 hours,23%
same,Ability to reduce the MMP-1 level (%),MMP-1,+33%
same,MMP-1 content (ng/mg proteins),MMP-1; 48 hours,46 ng/mg proteins
same,"Fiber Quality, change compared to placebo",[1]; D 21,+3%
same,"Fiber Quality, change compared to placebo","[1]; D 21, listed as retinol",+3%
same,"Fiber Quality, change compared to placebo",[1]; D 42,+12%
same,Synthesis of the collagen I network (×10^3 AU),collagen I,174 ×10^3 AU
same,Synthesis of hyaluronic acid (ng/mg proteins),"hyaluronic acid; Older fibroblasts, 48 hours",4112 ng/mg proteins
same,Content of hyaluronic acid/control (%),hyaluronic acid; older fibroblasts,+8%
same,"Eye fatigue, change compared to placebo",[2]; D 21,−2%
same,"Olive color, change compared to placebo",[2]; D 21,−11%
same,"Pinkness, change compared to placebo",[2]; D 21,+14%
same,"Radiance, change compared to placebo",[2]; D 21,+6%
same,"Eye fatigue, change compared to placebo",[2]; J42,−10%
same,"Olive color, change compared to placebo",[2]; J42,−10%
same,"Pinkness, change compared to placebo",[2]; J42,+19%
same,"Radiance, change compared to placebo",[2]; J42,+11%
same,COL4A1: Efficacy of retinol/older control (%),older human cells,−5%
same,COL7A1: Efficacy of retinol/older control (%),older human cells,−21%
same,COL17A1: Efficacy of retinol/older control (%),older human cells,−16%
same,LAMA3: Efficacy of retinol/older control (%),older human cells,−9%
same,COL4A1 expression (qPCR),older human cells; young cells control=100,38
same,COL7A1 expression (qPCR),older human cells; young cells control=100,68
same,COL17A1 expression (qPCR),older human cells; young cells control=100,81
same,LAMA3 expression (qPCR),older human cells; young cells control=100,94
same,AQP3: Efficacy of retinol/older control (%),[3],+13%
same,CD44: Efficacy of retinol/older control (%),[3],+77%
same,CLDN1: Efficacy of retinol/older control (%),[3],−52%
same,CXCL8: Efficacy of retinol/older control (%),[3],+189%
same,DSG: Efficacy of retinol/older control (%),[3],−99%
same,FLG: Efficacy of retinol/older control (%),[3],−76%
same,HAS3: Efficacy of retinol/older control (%),[3],+425%
same,IVL: Efficacy of retinol/older control (%),[3],+126%
same,KRT10: Efficacy of retinol/older control (%),[3],−97%
same,LOR: Efficacy of retinol/older control (%),[3],−95%
same,MKI67: Efficacy of retinol/older control (%),[3],+44%
same,S100A7: Efficacy of retinol/older control (%),[3],+1384%
same,S100A8: Efficacy of retinol/older control (%),[3],+23%
same,S100A9: Efficacy of retinol/older control (%),[3],+108%
same,SOD1: Efficacy of retinol/older control (%),[3],+7%
same,TGM1: Efficacy of retinol/older control (%),[3],−31%
same,AQP3 expression (qPCR),[3]; young cells control=100,69
same,CD44 expression (qPCR),[3]; young cells control=100,147
same,CLDN1 expression (qPCR),[3]; young cells control=100,33
same,CXCL8 expression (qPCR),[3]; young cells control=100,729
same,DSG expression (qPCR),[3]; young cells control=100,1
same,FLG expression (qPCR),[3]; young cells control=100,9
same,HAS3 expression (qPCR),[3]; young cells control=100,357
same,IVL expression (qPCR),[3]; young cells control=100,120
same,KRT10 expression (qPCR),[3]; young cells control=100,2
same,LOR expression (qPCR),[3]; young cells control=100,1
same,MKI67 expression (qPCR),[3]; young cells control=100,95
same,S100A7 expression (qPCR),[3]; young cells control=100,564
same,S100A8 expression (qPCR),[3]; young cells control=100,256
same,S100A9 expression (qPCR),[3]; young cells control=100,397
same,SOD1 expression (qPCR),[3]; young cells control=100,95
same,TGM1 expression (qPCR),[3]; young cells control=100,47
